Source: patent US9433663B2, “Mobilization of hematopoietic stem cells” (Children's Hospital Medical Center, priority 2008, dated 2016)

Experiments:
[1] = test system: N-RasMA93 cells; assay: directional migration of N-RasMA93 leukemia cells towards SDF-1α (transwell); format: cell-based, human; details: in vitro
Procedure: FIG. 5B. Migration of leukemia cells towards SDF-1α without or with CASIN pre-treatment at doses of 5 and 10 μM was determined by transwell assays.
Like normal HSCs, their malignant counterpart, leukemia initiating cells (LICs) reside in their BM niches that provide the structural and physiological conditions supporting their survival and growth. LICs are resistant to traditional chemotherapy by interacting with their BM microenvironment, which are the culprits of leukemia relapses after a period of remission induced by chemotherapy. Detachment of LICs from their niche by CASIN would be a valuable supplementary therapy to the traditional cancer therapies (e.g., chemotherapies). First of all, in vitro effects of CASIN were examined in adhesion, migration, and F-actin polymerization of LICs, each of which is independently important for the retention of LICs in BM niches. Retroviral transduction of an MLL-AF9 fusion cDNA together with N-Ras oncogene into normal human CD34^+cord blood cells led to the establishment of cultures of N-Ras-MA93 cells that can initiate acute myeloid leukemia in NOG mice. […] To address it, a human AML model was set up by transplanting N-RasMA93 cells into NOG mice intravenously.

[2] = molecular target: T1, Cdc42 (Mus musculus, UniProt P60766); assay: Rho GTPase effector pull-down in murine LDBM cells, Cdc42; format: cell-based; design: endogenous in cells; host or cells: murine low density bone marrow (LDBM) cells
Procedure: To analyze the effects of CASIN on the formation of active GTP-bound Cdc42, RhoA, and Rac1, effector pulldown assays were carried out as described previously. Cdc42GAP^−/− MEF, LDBM, CD34^+ hCB cells were treated with CASIN at doses of 5-20 μM in parallel with vehicle control for 2 hrs after overnight starvation, and stimulated with cytokines subsequently. And then cells were lysed in a buffer containing 20 mM Tris-HCL (pH 7.6), 100 mM NaCl, 1% Triton X-100, 10 mM MgCl2, 2 mM NaF, and Protease inhibitor cocktail (Roche Diagnostics). Lysates were incubated with GST-P21-binding domain of PAK1 for RAC1-GTP and Cdc42-GTP, and GST-RBD domain of Rhotekin for RhoA-GTP respectively. Both bound- and unbound-form of Rho GTPases were probed by immunoblotting with antibodies specific for Rac1 (BD biosciences), Cdc42 (BD biosciences), and RhoA (cell signaling).
Target sequence in this assay (P60766 whole entry, the tested form may be a part): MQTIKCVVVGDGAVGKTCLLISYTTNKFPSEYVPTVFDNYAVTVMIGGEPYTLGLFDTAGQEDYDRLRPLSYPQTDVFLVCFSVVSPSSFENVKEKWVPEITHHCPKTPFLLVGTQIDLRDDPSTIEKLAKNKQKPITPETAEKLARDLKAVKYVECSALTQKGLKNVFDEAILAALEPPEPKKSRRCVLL

[3] = test system: C57Bl/6 mice; assay: mobilization of colony-forming progenitors to peripheral blood, CFU-C assay; format: in vivo; details: intraperitoneal 2.4 mg/Kg, 40 hrs post administration, in comparison to vehicle control
Procedure: Whether CASIN administration can induce mobilization of HSC/Ps to peripheral blood of C57Bl/6 mice, mimicking the phenotype observed in Cdc42 conditional knockout mice, was evaluated. First of all, mobilization of hematopoietic progenitor cells was examined by CFU-C assays functionally (FIG. 3a). […] Secondarily, to further explore the ability of CASIN to mobilize LT-HSC which is crucial for long-term repopulation of the mobilized cells, serial transplantations were carried out, where 20 million PB from CASIN-mobilized C57Bl/6 mice was transplanted into primary recipient of NOD/SCID mice, and subsequent secondary and tertiary transplants were finished as well using prior BMs (FIG. 3c). Donor chimerisms were assessed by using H2K^b congenic marker which is positive for donors of C57Bl/6 strain and negative for recipients of NOD/SCID strain. […] Therefore, the studies show CASIN can efficiently mobilize colony-forming hematopoietic progenitors and LT-HSCs with self-renewal and multi-lineage differentiation capacity. Thirdly, to further investigate the potential of CASIN to vacate the BM niche after mobilization, six-color staining of the BM cells was performed from C57Bl/6 mice with or without CASIN treatment followed by FACS analysis. […] Therefore, a transient decrease in BM and a concomitant increase in peripheral organs of HSCs would be beneficial to facilitating the subsequent HSC transplantation.
To determinate the hematopoietic progenitor content in the PB of mobilized C57Bl/6 mice, colony-forming unit assay was performed as described previously. Briefly, 200 ul PB was plated in triplicate into methylcellulose (MethocultM3434; StemCell Technology, Vancouver, BC, Canada). Colonies were then counted 7 d later.

[4] = molecular target: T1, Cdc42; assay: Rho GTPase pull-down of BM cells after in vivo administration; design: from tissue; host or cells: bone marrow (LDBM) cells of C57Bl/6 mice; details: C57Bl/6 mice; FIG. 8a legend: BM cells harvested 20 mins after CASIN administration
Procedure: FIG. 8A. CASIN inhibited Cdc42 activity in BM cells harvested from C57Bl/6 mice 20 mins after CASIN administration.
Whether CASIN administration can induce mobilization of HSC/Ps to peripheral blood of C57Bl/6 mice, mimicking the phenotype observed in Cdc42 conditional knockout mice, was evaluated. First of all, mobilization of hematopoietic progenitor cells was examined by CFU-C assays functionally (FIG. 3a). […] Secondarily, to further explore the ability of CASIN to mobilize LT-HSC which is crucial for long-term repopulation of the mobilized cells, serial transplantations were carried out, where 20 million PB from CASIN-mobilized C57Bl/6 mice was transplanted into primary recipient of NOD/SCID mice, and subsequent secondary and tertiary transplants were finished as well using prior BMs (FIG. 3c). Donor chimerisms were assessed by using H2K^b congenic marker which is positive for donors of C57Bl/6 strain and negative for recipients of NOD/SCID strain. […] Therefore, the studies show CASIN can efficiently mobilize colony-forming hematopoietic progenitors and LT-HSCs with self-renewal and multi-lineage differentiation capacity. Thirdly, to further investigate the potential of CASIN to vacate the BM niche after mobilization, six-color staining of the BM cells was performed from C57Bl/6 mice with or without CASIN treatment followed by FACS analysis. […]
Target sequence in this assay (P60766 whole entry, the tested form may be a part): as above

[5] = molecular target: T1, Cdc42; assay: Example 7 effector pull-down in LDBM and HCB cells, Cdc42; format: cell-based, murine LDBM and human HCB cells; design: endogenous in cells; host or cells: murine LDBM cells and human CD34+ HCB cells
Procedure: To exclude the inhibitory effect of CASIN on other Rac isoforms, Rho GTPases, and Ras, broader effector pull-down experiments are performed on these possible candidates with gradient doses of CASIN in LDBM and HCB cells as previously described. In addition, CASIN has been indicated as a noncovalent and reversible inhibitor in Xenopus egg extract. To confirm it, reversibility is monitored in this set of effector pull-down experiments. Four treatment groups are divided for both LDBM and HCB cells: (1) Serum starvation 20 h; (2) Serum starvation 20 h+growth factors stimulation; (3) Serum starvation 20 h+CASIN treatment (doses: 1, 2.5, 5, and 10 μM) 3 h+growth factor stimulation; (4) Serum starvation 20 h+CASIN treatment (doses: 1, 2.5, 5, and 10 μM) 3 h+wash the cells, and culture for another 3 h for recovery+growth factors stimulation. […] Bound proteins are analyzed by immunoblotting with respective antibodies (BD Biosciences). Furthermore, changes of downstream targets of Cdc42, Rac, and Rho under the four treatment groups are assessed. Phosphorylation status of PAK1, WASP (effectors of Cdc42), WAVE (effector of Rac), and ROCK (effector of Rho) are monitored by western blots using respective antibodies.
Target sequence in this assay (P60766 1-188 limits assumed): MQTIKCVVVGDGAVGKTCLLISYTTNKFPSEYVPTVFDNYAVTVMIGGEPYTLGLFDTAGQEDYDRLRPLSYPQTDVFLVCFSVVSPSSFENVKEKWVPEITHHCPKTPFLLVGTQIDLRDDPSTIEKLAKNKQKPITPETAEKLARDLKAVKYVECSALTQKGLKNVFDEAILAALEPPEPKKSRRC

SMILES: OCCNC1CCCc2c1[nH]c1ccc(-c3ccccc3)cc21 (stereo not shown) [CASIN]
- directional migration capacity of N-RasMA93 cells [1]: significantly impaired
- Cdc42 activity ([2]; pre-treatment at 5 and 10 μM, mixed cytokine stimulation): dose-dependent inhibition
- reversibility of Cdc42 activity inhibition ([2]; removal of CASIN by a pre-wash): reversible
- mobilization of colony-forming progenitors to the peripheral blood [3]: more than six-fold
- Cdc42 activity in LDBM cells after in vivo administration [4]: really down
- activity of Cdc42 [5]: specifically inhibit the activity of Cdc42 in a dose-dependent manner
- recovery of Cdc42 activity after wash [5]: recovers 3 h after CASIN is washed away
